Data from patent US10947241B2, “Phenyl phthalazine derivative, method for the preparation thereof, and pharmaceutical composition comprising the same” (Seoul National University Hospital, priority 2016, dated 2021).
Where a name gives a salt, the structure may show the parent alone.

Biological target: hResistin (Homo sapiens (Human), UniProt Q9HD89)
Assay: Evaluation of the ability to inhibit TNF-α secretion by hResistin (THP-1 cells, ELISA)
Format: cell-based
Details: for inhibition at 5 µM: inhibition of TNF-α secretion by hResistin in THP-1 cells; for IC50: THP-1 human monocyte cell line, human recombinant Resistin
Description: Experimental Example: Evaluation of the Ability to Inhibit TNF-α Secretion by hResistin
Using THP-1 (human monocyte) cell line and ELISA system, the abilities to inhibit TNF-α secretion by hResistin (IC50) were evaluated for the compounds prepared in the above examples. The compounds target hResistin, and the abilities of the compounds to inhibit TNF-α secretion by human recombinant Resistin in human monocyte (THP-1) were evaluated. The abilities to inhibit TNF-α secretion were assessed by ELISA quantifying the amount of antibody with the enzyme as a marker using an antigen-antibody reaction.
Specifically, the cultured cells were spun down at 1,500 rpm for 2 minutes, the supernatant was removed and then the cells were re-suspended in 10 mL of complete RPMI-1640 medium. After counting the number of cells using Luna™ Automated Cell Counter, cells were plated into 96-well assay plates at 50 μL per well. The cells cultured for 24 hours were treated with the test substances in accordance with the concentration for 1 hour, and then the supernatant was collected and subjected to ELISA assay. In the ELISA assay, the absorbance at 450 nm (OD450 nm) was measured using Flexstation 3. The ability of each test substance to inhibit TNF-α secretion (IC50) and its inhibition at a concentration of 5 uM are shown in Table 1 below.

Sequence of hResistin (Q9HD89 19-108): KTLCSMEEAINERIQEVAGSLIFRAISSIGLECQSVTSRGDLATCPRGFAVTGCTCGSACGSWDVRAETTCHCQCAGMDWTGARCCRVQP

Structure (SMILES)	inhibition at 5 µM	IC50
O=C([C@@H]1CCCN1)N1CCN(c2nnc(-c3ccc(Cl)cc3)c3ccccc23)CC1 [Example 59, (S)-(4-(4-(4-chlorophenyl)phthalazin-1-yl)piperazin-1-yl)(pyrrolidin-2-yl)methanone hydrochloride]	60.3%	
CC(=O)NC1CCN(c2nnc(-c3ccc(Cl)cc3)c3ccccc23)C1 (stereo not shown) [Example 45, N-(1-(4-(4-chlorophenyl)phthalazin-1-yl)pyrrolidin-3-yl)acetamide]	77.6%	1600 nM
CC(=O)N1CCN(c2nnc(-c3ccc(C)cc3)c3ccccc23)CC1 [Example 2, 1-(4-(4-p-tolylphthalazin-1-yl)piperazin-1-yl)ethanone]		5000 nM
CNCCN(C)c1nnc(-c2ccc(Cl)cc2)c2ccccc12 [Example 53, N1-(4-(4-chlorophenyl)phthalazin-1-yl)-N1,N2-dimethylethane-1,2-diamine]	8.7%	
C[C@@H](N)C(=O)N1CCN(c2nnc(-c3ccc(Cl)cc3)c3ccccc23)CC1 [Example 36, (R)-2-amino-1-(4-(4-(4-chlorophenyl)phthalazin-1-yl)piperazin-1-yl)propan-1-one hydrochloride]	75.8%	2500 nM
CC(C)(N)C(=O)N1CC=C(c2nnc(-c3ccc(Cl)cc3)c3ccccc23)CC1 [Example 44, 2-amino-1-(4-(4-(4-chlorophenyl)phthalazin-1-yl)-5,6-dihydropyridin-1(2H)-yl)-2-methylpropan-1-one hydrochloride]	50.5%	
CCNC1CCN(c2nnc(-c3ccc(Cl)cc3)c3ccccc23)C1 (stereo not shown) [Example 54, 1-(4-(4-chlorophenyl)phthalazin-1-yl)-N-ethylpyrrolidin-3-amine hydrochloride]	70%	1900 nM
CNC1CCN(c2nnc(-c3ccc(Cl)cc3)c3ccccc23)C1 (stereo not shown) [Example 46, 1-(4-(4-chlorophenyl)phthalazin-1-yl)-N-methylpyrrolidin-3-amine hydrochloride]	97.8%	300 nM
COCCN1CCN(c2nnc(-c3ccc(Cl)cc3)c3ccccc23)CC1 [Example 9, 1-(4-chlorophenyl)-4-(4-(2-methoxyethyl)piperazin-1-yl)phthalazine]		3700 nM
CC(C)(N)C(=O)N1CCN(c2nnc(-c3ccc(Cl)cc3)c3ccccc23)CC1 [Example 43, 2-amino-1-(4-(4-(4-chlorophenyl)phthalazin-1-yl)piperazin-1-yl)-2-methyl propan-1-one hydrochloride]	84.4%	1300 nM
O=C([C@H]1CCCN1)N1CCN(c2nnc(-c3ccc(Cl)cc3)c3ccccc23)CC1 [Example 51, (R)-(4-(4-(4-chlorophenyl)phthalazin-1-yl)piperazin-1-yl)(pyrrolidin-2-yl)methanone hydrochloride]	88.2%	800 nM
OCCC1CCN(c2nnc(-c3ccc(Cl)cc3)c3ccccc23)CC1 [Example 4, 2-(1-(4-(4-chlorophenyl)phthalazin-1-yl)piperidin-4-yl)ethanol]	40.4%	1600 nM
CC(C)[C@H](N)C(=O)N1CCN(c2nnc(-c3ccc(Cl)cc3)c3ccccc23)CC1 [Example 47, (S)-2-amino-1-(4-(4-(4-chlorophenyl)phthalazin-1-yl)piperazin-1-yl)-3-methylbutan-1-one hydrochloride]	87.1%	700 nM

Results, then the compound that gave them:

inhibition at 5 µM	IC50	Structure (SMILES)
69.9%		N[C@H](C(=O)N1CCN(c2nnc(-c3ccc(Cl)cc3)c3ccccc23)CC1)c1ccccc1 [Example 80, (S)-2-amino-1-(4-(4-(4-chlorophenyl)phthalazin-1-yl)piperazin-1-yl)-2-phenylethanone hydrochloride]
86.7%	900 nM	CNC1CCN(c2nnc(-c3ccc(Cl)cc3)c3cc(Cl)ccc23)C1 (stereo not shown) [Example 90, 1-(6-chloro-4-(4-chlorophenyl)phthalazin-1-yl)-N-methylpyrrolidin-3-amine hydrochloride]
16.1%		CC(C)[C@H](N)C(=O)N1CCN(c2nnc(-c3ccc(Cl)cc3)c3ccccc23)CC1(C)C [Example 69, (S)-2-amino-1-(4-(4-(4-chlorophenyl)phthalazin-1-yl)-2,2-dimethylpiperazin-1-yl)-3-methylbutan-1-one hydrochloride]
28.9%		N[C@@H](Cc1c[nH]cn1)C(=O)N1CCN(c2nnc(-c3ccc(Cl)cc3)c3ccccc23)CC1 [Example 76, (S)-2-amino-1-(4-(4-(4-chlorophenyl)phthalazin-1-yl)piperazin-1-yl)-3-(1H-imidazol-4-yl)propan-1-one dihydrochloride]
77.9%	1800 nM	CNC1CCN(c2nnc(-c3ccc(Cl)cc3)c3ccc(Cl)cc23)C1 (stereo not shown) [Example 89, 1-(7-chloro-4-(4-chlorophenyl)phthalazin-1-yl)-N-methylpyrrolidin-3-amine hydrochloride]
29.9%		CC(C)(N)C(=O)N1CCN(c2nnc(Oc3ccc(Cl)cc3)c3ccccc23)CC1 [Example 94, 2-amino-1-(4-(4-(4-chlorophenoxy)phthalazin-1-yl)piperazin-1-yl)-2-methylpropan-1-one hydrochloride]
72.2%		C[C@H]1CN(c2nnc(-c3ccc(Cl)cc3)c3ccccc23)CCN1C(=O)C(C)(C)N [Example 72, (S)-2-amino-1-(4-(4-(4-chlorophenyl)phthalazin-1-yl)-2-methylpiperazin-1-yl)-2-methylpropan-1-one hydrochloride]
76.6%	600 nM	CNC1CCN(c2nnc(-c3ccc(Cl)cc3)c3cc(F)ccc23)C1 (stereo not shown) [Example 91, 1-(4-(4-chlorophenyl)-6-fluorophthalazin-1-yl)-N-methylpyrrolidin-3-amine hydrochloride]
30.9%		CC(C)[C@H](N)C(=O)N1CCN(c2nnc(-c3ccc(Cl)cc3)c3ccccc23)[C@@H](C)C1 [Example 75, (S)-2-amino-1-((S)-4-(4-(4-chlorophenyl)phthalazin-1-yl)-3-methylpiperazin-1-yl)-3-methylbutan-1-one hydrochloride]
53.6%		CC[C@H](C)[C@H](N)C(=O)N1CCC(c2nnc(-c3ccc(Cl)cc3)c3ccccc23)CC1 [Example 63, (2S,3S)-2-amino-1-(4-(4-(4-chlorophenyl)phthalazin-1-yl)piperidin-1-yl)-3-methylpentan-1-one hydrochloride]
65.4%		N[C@@H](COCc1ccccc1)C(=O)N1CCN(c2nnc(-c3ccc(Cl)cc3)c3ccccc23)CC1 [Example 79, (S)-2-amino-3-(benzyloxy)-1-(4-(4-(4-chlorophenyl)phthalazin-1-yl)piperazin-1-yl)propan-1-one hydrochloride]
	900 nM	Clc1ccc(-c2nnc(N3CC4CCNC4C3)c3ccccc23)cc1 (stereo not shown) [Example 88, 1-(4-chlorophenyl)-4-(hexahydropyrrolo[3,4-b]pyrrol-5(1H)-yl)phthalazine hydrochloride]
64%	2300 nM	Clc1ccc(-c2nnc(O[C@H]3CCNC3)c3ccccc23)cc1 [Example 95, (S)-1-(4-chlorophenyl)-4-(pyrrolidin-3-yloxy)phthalazine hydrochloride]
67.6%	1900 nM	CNC1CCN(c2nnc(Oc3ccc(Cl)cc3)c3ccccc23)C1 (stereo not shown) [Example 93, 1-(4-(4-chlorophenoxy)phthalazin-1-yl)-N-methylpyrrolidin-3-amine hydrochloride]
